Assay results published in US9701680B2, “Pyrimidine and pyridine compounds and their usage” (HUTCHISON MEDIPHARMA LIMITED, priority 2013, dated 2017).
Read-outs that look alike come from different tables or passages of the source.

Columns and labels:
FGFR3 kinase = FGFR3 kinase (Homo sapiens, UniProt P22607); experiment: Z-Lyte Kinase Assay of FGFR3; assay type: biochemical
Summary of the method: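 Z-LYTE FRET assay, kinase 0.7 μg/ml with Tyr 4 peptide 4 μM (P/K solution), ATP diluted to 300 uM in 1.33× buffer; compound final 1 to 0.00046 μM, 2% DMSO.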

Recombinant human FGFR2 = Recombinant human FGFR2 (Homo sapiens, UniProt P21802); experiment: Transcreener Kinase Assay of FGFR2; assay type: biochemical
Chain of Recombinant human FGFR2 (P21802 22-821): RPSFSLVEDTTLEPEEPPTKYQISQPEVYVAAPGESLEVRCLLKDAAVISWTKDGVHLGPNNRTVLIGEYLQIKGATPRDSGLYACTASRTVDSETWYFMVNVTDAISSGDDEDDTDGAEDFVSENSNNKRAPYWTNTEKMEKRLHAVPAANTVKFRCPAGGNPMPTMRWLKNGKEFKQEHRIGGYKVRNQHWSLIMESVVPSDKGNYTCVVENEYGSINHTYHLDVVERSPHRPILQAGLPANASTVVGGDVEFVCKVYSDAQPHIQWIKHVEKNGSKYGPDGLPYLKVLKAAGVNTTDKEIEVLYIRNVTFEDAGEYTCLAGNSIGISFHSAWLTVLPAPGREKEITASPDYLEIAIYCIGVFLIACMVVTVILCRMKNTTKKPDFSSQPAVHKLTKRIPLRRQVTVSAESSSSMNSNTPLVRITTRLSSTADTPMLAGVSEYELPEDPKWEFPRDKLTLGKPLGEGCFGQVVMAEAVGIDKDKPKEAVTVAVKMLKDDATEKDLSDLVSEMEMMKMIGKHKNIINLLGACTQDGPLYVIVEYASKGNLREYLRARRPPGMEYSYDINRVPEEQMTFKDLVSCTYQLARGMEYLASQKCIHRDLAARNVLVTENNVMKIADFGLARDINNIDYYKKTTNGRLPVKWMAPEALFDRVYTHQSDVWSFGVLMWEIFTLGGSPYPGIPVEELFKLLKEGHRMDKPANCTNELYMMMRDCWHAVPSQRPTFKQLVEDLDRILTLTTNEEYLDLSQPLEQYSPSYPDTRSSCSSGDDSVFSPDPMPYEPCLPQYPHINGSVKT

KG-1 = experiment: Cellular Proliferation Assay (Cell Counting Kit-8), KG-1; assay type: cell-based; details: Homo sapiens; KG-1 cells, 72 hours; read-out: KG1 IC50
Summary of the method: (§1)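 Seeding per well: KG-1 30000, SNU-16 5000, RT-112 1000 cells. After 24 h an 8-point series (working dilutions 10 to 0.004 μM in 5% DMSO) was added for 72 h at 37 °C, 5% CO2. CCK-8 OD450 after 1 h, corrected for media background and normalised to untreated cells, gave IC50.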

RT-112 = experiment: Cellular Proliferation Assay (Cell Counting Kit-8), RT-112; assay type: cell-based; details: Homo sapiens; RT-112 cells, 72 hours
Summary of the method: as §1

SNU-16 = experiment: Cellular Proliferation Assay (Cell Counting Kit-8), SNU-16; assay type: cell-based; details: Homo sapiens; SNU-16 cells, 72 hours
Summary of the method: as §1

Recombinant human FGFR1 = Recombinant human FGFR1 (Homo sapiens, UniProt P11362); experiment: Transcreener Kinase Assay of FGFR1; assay type: biochemical
Chain of Recombinant human FGFR1 (P11362 22-822): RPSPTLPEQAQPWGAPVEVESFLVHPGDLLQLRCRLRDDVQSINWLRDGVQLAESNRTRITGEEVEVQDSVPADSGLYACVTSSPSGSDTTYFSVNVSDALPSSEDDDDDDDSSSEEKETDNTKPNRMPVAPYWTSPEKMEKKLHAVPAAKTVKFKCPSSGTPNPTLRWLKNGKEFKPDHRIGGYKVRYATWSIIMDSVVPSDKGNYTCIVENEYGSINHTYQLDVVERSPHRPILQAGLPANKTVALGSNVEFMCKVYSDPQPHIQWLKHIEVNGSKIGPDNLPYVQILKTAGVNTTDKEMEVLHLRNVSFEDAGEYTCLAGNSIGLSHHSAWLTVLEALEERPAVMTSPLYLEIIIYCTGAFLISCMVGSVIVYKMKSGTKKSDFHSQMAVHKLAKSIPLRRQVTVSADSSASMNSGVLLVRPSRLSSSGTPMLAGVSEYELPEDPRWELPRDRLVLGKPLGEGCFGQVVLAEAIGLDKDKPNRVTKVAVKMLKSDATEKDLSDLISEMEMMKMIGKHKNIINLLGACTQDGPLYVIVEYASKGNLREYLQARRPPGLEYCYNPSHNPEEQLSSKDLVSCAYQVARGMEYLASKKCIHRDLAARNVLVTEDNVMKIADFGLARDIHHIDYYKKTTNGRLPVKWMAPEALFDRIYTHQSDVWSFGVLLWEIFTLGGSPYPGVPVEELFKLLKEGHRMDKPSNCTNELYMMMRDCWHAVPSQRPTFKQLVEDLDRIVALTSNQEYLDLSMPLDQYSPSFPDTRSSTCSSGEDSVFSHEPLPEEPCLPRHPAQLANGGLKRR
Summary of the method: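 Recombinant human FGFR1 was reacted with Poly E4Y substrate and ATP for 45 min at 28 °C, with compounds at 1 to 0.0005 µM in 1% DMSO final. Inhibition is relative to the DMSO control, with IC50 from a curve fit.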

Chain of FGFR3 kinase (P22607 23-806): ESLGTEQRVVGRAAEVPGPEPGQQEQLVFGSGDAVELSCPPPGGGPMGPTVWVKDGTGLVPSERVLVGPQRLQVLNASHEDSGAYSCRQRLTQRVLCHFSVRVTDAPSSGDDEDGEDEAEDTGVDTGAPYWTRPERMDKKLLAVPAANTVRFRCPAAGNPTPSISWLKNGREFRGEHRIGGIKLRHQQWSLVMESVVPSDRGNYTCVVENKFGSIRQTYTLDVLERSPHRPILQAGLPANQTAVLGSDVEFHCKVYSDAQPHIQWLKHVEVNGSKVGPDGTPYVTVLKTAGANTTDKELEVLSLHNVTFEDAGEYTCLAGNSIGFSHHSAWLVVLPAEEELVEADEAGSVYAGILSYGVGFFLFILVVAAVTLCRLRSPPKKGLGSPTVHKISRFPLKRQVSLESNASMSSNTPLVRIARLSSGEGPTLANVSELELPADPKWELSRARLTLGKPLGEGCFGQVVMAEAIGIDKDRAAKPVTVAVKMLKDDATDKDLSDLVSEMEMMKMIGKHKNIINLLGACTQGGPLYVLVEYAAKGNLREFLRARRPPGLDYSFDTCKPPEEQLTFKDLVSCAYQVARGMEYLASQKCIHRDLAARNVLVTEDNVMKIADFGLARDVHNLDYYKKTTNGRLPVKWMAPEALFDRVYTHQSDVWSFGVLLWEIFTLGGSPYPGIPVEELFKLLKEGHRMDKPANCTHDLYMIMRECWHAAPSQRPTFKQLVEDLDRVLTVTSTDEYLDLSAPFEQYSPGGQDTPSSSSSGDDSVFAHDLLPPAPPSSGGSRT

SMILES | IC50 (FGFR3 kinase) | IC50 (Recombinant human FGFR2; read-out: FGFR2 (FP) IC50) | IC50 (SNU-16) | IC50 (Recombinant human FGFR1; read-out: FGFR1 (FP) IC50) | IC50 (FGFR3 kinase; Z-lyte) | IC50 (Recombinant human FGFR2; FP) | IC50 (Recombinant human FGFR1; FP) | IC50 (KG-1) | IC50 (RT-112)
CNC(=O)c1cc(OC)c(F)c(COc2cnc(Nc3cccc(N4C[C@@H](C)N[C@@H](C)C4)c3)nc2)c1F [Compound 275] | 14 nM | 9 nM | 18 nM | 14 nM | – | – | – | 46 nM | 62 nM
CNC(=O)c1cc(COc2cnc(Nc3ccc(N4C[C@@H](C)N(C)[C@@H](C)C4)nc3)nc2)c(F)c(OC)c1 [Compound 268] | 20 nM | 16 nM | 18 nM | 21 nM | – | – | – | 17 nM | 47 nM
CNC(=O)c1cc(COc2cnc(Nc3ccc(N4C[C@@H](C)N[C@@H](C)C4)c(OC)c3)nc2)c(F)c(OC)c1 [Compound 282] | – | – | 5 nM | – | 7 nM | 9 nM | 18 nM | 46 nM | 5 nM
CNC(=O)c1cc(COc2cnc(Nc3cccc(CCN4CCN(CCOC)CC4)c3)nc2)c(F)c(OC)c1 [Compound 301] | – | – | 11 nM | – | 10 nM | 6 nM | 9 nM | 24 nM | 37 nM
CNC(=O)c1cc(CCc2cnc(Nc3ccc(O)cc3)nc2)c(Cl)c(OC)c1 [Compound 81] | 26 nM | 13 nM | 59 nM | 17 nM | – | – | – | 26 nM | 133 nM
CNC(=O)c1cc(COc2cnc(Nc3ccc(N4CCOCC4)c(OC)c3)nc2)c(F)c(OC)c1 [Compound 261] | 18 nM | 13 nM | 7 nM | 26 nM | – | – | – | 19 nM | 13 nM
C#Cc1ccc(Nc2ncc(OCc3cc(C(=O)NC)cc(OC)c3F)cn2)cn1 [Compound 211] | 42 nM | 16 nM | 155 nM | 40 nM | – | – | – | 103 nM | 78 nM
CNC(=O)c1cc(COc2cnc(Nc3ccc([C@H]4CCCN(C(C)=O)C4)nc3)nc2)c(Cl)c(OC)c1 [Compound 284] | – | – | 33 nM | – | 43 nM | 24 nM | 39 nM | 71 nM | 72 nM
CNC(=O)c1cc(COc2cnc(Nc3ccc(-n4nccn4)cc3)nc2)c(Cl)c(OC)c1 [Compound 233] | 310 nM | 31 nM | 63 nM | 98 nM | – | – | – | 58 nM | 121 nM
CNC(=O)c1cc(COc2cnc(Nc3ccc(OC)c(N4CCN(C)CC4)c3)nc2)c(F)c(OC)c1 [Compound 270] | 8 nM | 9 nM | 10 nM | 18 nM | – | – | – | 52 nM | 23 nM
CNC(=O)c1cc(CCc2cnc(Nc3ccc(N)cc3)nc2)c(Cl)c(OC)c1 [Compound 80] | 13 nM | 11 nM | 18 nM | 10 nM | – | – | – | 13 nM | 44 nM
CNC(=O)c1cc(COc2cnc(Nc3ccc(N4C[C@@H](C)N(C)[C@@H](C)C4)cc3)nc2)c(Cl)c(OC)c1 [Compound 286] | – | – | 16 nM | – | 9 nM | 6 nM | 7 nM | 8 nM | 43 nM
CNC(=O)c1cc(CCc2cnc(Nc3ccc(NC[C@@H](C)N)cc3)nc2)c(Cl)c(OC)c1 [Compound 92] | 10 nM | 8 nM | 32 nM | 8 nM | – | – | – | 90 nM | 87 nM
CNC(=O)c1cc(COc2cnc(Nc3cnc(N4C[C@@H](C)N[C@@H](C)C4)c(F)c3)nc2)c(Cl)c(OC)c1 [Compound 292] | – | – | 17 nM | – | 14 nM | 11 nM | 13 nM | 46 nM | 70 nM
CCN1CCC(c2ccc(Nc3ncc(OCc4cc(C(=O)NC)cc(OC)c4F)cn3)cn2)CC1 [Compound 256] | 39 nM | 40 nM | 22 nM | 100 nM | – | – | – | 202 nM | 57 nM
CNC(=O)c1cc(COc2cnc(Nc3ccc(O[C@@H]4O[C@H](CO)[C@@H](O)[C@H](O)[C@H]4O)cc3)nc2)c(Cl)c(OC)c1 [Compound 303] | – | – | 23 nM | – | 7 nM | 7 nM | 11 nM | 40 nM | 64 nM
CNC(=O)c1cc(CCc2cnc(Nc3ccc(N4CCN(C)CC4)c(OC)c3)nc2)c(F)c(OC)c1 [Compound 172] | 6 nM | 6 nM | 4 nM | 7 nM | – | – | – | 13 nM | 12 nM

Further molecules by falling IC50 (SNU-16), results first:

IC50 (FGFR3 kinase) | IC50 (Recombinant human FGFR2; read-out: FGFR2 (FP) IC50) | IC50 (SNU-16) | IC50 (Recombinant human FGFR1; read-out: FGFR1 (FP) IC50) | IC50 (FGFR3 kinase; Z-lyte) | IC50 (Recombinant human FGFR2; FP) | IC50 (Recombinant human FGFR1; FP) | SMILES | IC50 (KG-1) | IC50 (RT-112)
13 nM | 10 nM | 115 nM | 10 nM | – | – | – | CNC(=O)c1cc(COc2cnc(Nc3ccc([C@@H]4CCCNC4)nc3)nc2)c(Cl)c(OC)c1 [Compound 244] | 362 nM | 585 nM
120 nM | 18 nM | 97 nM | 29 nM | – | – | – | CNC(=O)c1cc(COc2cnc(Nc3ccc(-c4cnn(C)c4)cc3)nc2)c(F)c(OC)c1 [Compound 228] | 94 nM | 270 nM
65 nM | 20 nM | 72 nM | 44 nM | – | – | – | CNC(=O)c1cc(COc2cnc(Nc3ccc(C(C)=O)cc3)nc2)c(F)c(OC)c1 [Compound 215] | 26 nM | 127 nM
56 nM | 27 nM | 56 nM | 65 nM | – | – | – | CCN1CCc2cc(Nc3ncc(OCc4cc(C(=O)NC)cc(OC)c4F)cn3)ccc21 [Compound 224] | 63 nM | 234 nM
49 nM | 12 nM | 43 nM | 31 nM | – | – | – | CNC(=O)c1cc(CCc2cnc(Nc3ccc(C(C)(C)C#N)nc3)nc2)c(F)c(OC)c1 [Compound 142] | 64 nM | 127 nM
40 nM | 12 nM | 34 nM | 39 nM | – | – | – | CNC(=O)c1cc(COc2cnc(Nc3ccc(-n4ccnn4)cc3)nc2)c(F)c(OC)c1 [Compound 222] | 52 nM | 83 nM
19 nM | 21 nM | 31 nM | 31 nM | – | – | – | CCCN1CC(c2ccc(Nc3ncc(OCc4cc(C(=O)NC)cc(OC)c4F)cn3)cn2)C1 [Compound 241] | 162 nM | 112 nM
23 nM | 16 nM | 28 nM | 34 nM | – | – | – | CNC(=O)c1cc(COc2cnc(Nc3ccc(N4CCOCC4)nc3)nc2)c(Cl)c(OC)c1 [Compound 247] | 42 nM | 57 nM
37 nM | 11 nM | 27 nM | 34 nM | – | – | – | CNC(=O)c1cc(COc2cnc(Nc3ccc(-n4cncn4)cc3)nc2)c(F)c(OC)c1 [Compound 221] | 35 nM | 72 nM
19 nM | 25 nM | 27 nM | 67 nM | – | – | – | CNC(=O)c1cc(COc2cnc(Nc3ccc4c(c3)NCC4)nc2)c(F)c(OC)c1 [Compound 214] | 6 nM | 90 nM
11 nM | 7 nM | 20 nM | 10 nM | – | – | – | CNC(=O)c1cc(COc2cnc(Nc3cccc(NC(C)=O)c3)nc2)c(F)c(OC)c1 [Compound 216] | 24 nM | 132 nM
25 nM | 8 nM | 20 nM | 23 nM | – | – | – | CNC(=O)c1cc(COc2cnc(Nc3cccc(S(C)(=O)=O)c3)nc2)c(F)c(OC)c1 [Compound 227] | 35 nM | 85 nM
11 nM | 15 nM | 14 nM | 26 nM | – | – | – | CNC(=O)c1cc(COc2cnc(Nc3ccc(CCN(C)C)cc3)nc2)c(F)c(OC)c1 [Compound 225] | 7 nM | 21 nM
– | – | 14 nM | – | 19 nM | 14 nM | 19 nM | CCN1[C@H](C)CN(c2ccc(Nc3ncc(OCc4cc(C(=O)NC)cc(OC)c4F)cn3)cn2)C[C@@H]1C [Compound 281] | 9 nM | 37 nM
14 nM | 11 nM | 9 nM | 16 nM | – | – | – | CNC(=O)c1cc(COc2cnc(Nc3cnn(C[C@@H]4COC(C)(C)O4)c3)nc2)c(F)c(OC)c1 [Compound 248] | 6 nM | 21 nM
6 nM | 5 nM | 8 nM | 10 nM | – | – | – | CNC(=O)c1cc(COc2cnc(Nc3ccc(N4CCC(N(C)C)CC4)cc3)nc2)c(F)c(OC)c1 [Compound 264] | 7 nM | 8 nM
– | – | 3 nM | – | 4 nM | 5 nM | 12 nM | CCN1CCN(c2ccc(Nc3ncc(OCc4cc(C(=O)NC)cc(OC)c4F)cn3)cc2OC)CC1 [Compound 283] | 8 nM | 8 nM
6 nM | 5 nM | 2 nM | 6 nM | – | – | – | CNC(=O)c1cc(CCc2cnc(Nc3ccc(N4CCN(C)CC4)c(OC)c3)nc2)c(Cl)c(OC)c1 [Compound 177] | 11 nM | 11 nM
